# Results from US12527753B2, “Cysteamine for the treatment, mitigation and prevention of coronaviral, e.g., SARS-CoV-2, infections” (The Regents of the University of Michigan, priority 2020, dated 2026).
# pEC50: −log10 of the molar value. Where a name gives a salt, the structure may show the parent alone. Read-outs that look alike come from different tables or passages of the source.
# Tests used:
# SARS-CoV-2-WA1 strain = test: Huh7 cellular infectivity assay with SARS-CoV-2 (high content bioimaging); assay type: cell-based; details: for efficacy in preventing SARS-CoV-2 infection: Huh-7 cells, normalized to infected and uninfected vehicle wells
# Experimental: (§1) FIGS. 3A-D. Cysteamine efficacy in the Huh7 cellular infectivity assay with SARS-CoV-2-WA1 strain. Cells are infected at 0.2 MOI and are incubated for 48 hours to allow for the initial infection and propagation to surrounding cells. […] All concentrations of cysteamine (50, 20, 8, 3, 1.5 micromolar) tested were non-cytotoxic indicating an acceptable therapeutic index.
# Experiments were conducted during development of embodiments herein using a fully developed high-content screening pipeline to screen approved drugs against SARS Cov-2, the causative agent of COVID-19. A high throughput screen of FDA-approved drugs was conducted to determine the efficacy in a SARS-CoV-2 infectivity assay. This high content bioimaging-based assay has proven to be highly robust and informative, and clearly differentiates between infected and uninfected cells (FIG. 2). This high-content screen identifies individual agents effective in reducing viral infectivity or replication by imaging individual SARS Cov-2 infected cells. A screen of 1,200 compounds was conducted through the validated assay platform. Remdesivir, a viral replication inhibitor, was selected as a positive control, which results in 100% efficacy.
# Cysteamine was evaluated for its antiviral effects at 5 doses with 9 replicates at each dose for a total of 45 independent experiments. Automated image analysis was performed to quantitate the number and percentage of infected cells and that was normalized to the infected and vehicle (DMSO) treated wells and the uninfected and vehicle treated wells representing 0-100% efficacy, as shown on the y-axis dose response plot for cysteamine anti-SARS-CoV-2 (FIG. 3).
# SARS-CoV-2 WA wild type = test: Virus pre-incubation, plaque formation in TMPRSS cells; assay type: cell-based; details: Severe acute respiratory syndrome coronavirus 2, 2 h; 5 mM, 120 min incubation
# [1] = aqueous 0.1% and 0.5% (10 mM and 50 mM); cited from earlier work
# [2] = aqueous 0.1% and 0.5%, topical; cited from earlier work
# Huh7 cells = test: Cytotoxicity in the Huh7 infectivity assay; assay type: cell-based; details: 50, 20, 8, 3, 1.5 micromolar
# Experimental: as §1
# epithelial fibroblasts = details: concentrations up to 10 μM; cited from earlier work
# [3] = tested on: HIV-1 (4 primary isolates and 2 laboratory strains); details: cited from earlier work
# [4] = tested on: HTLV-IIIB strain of HIV-1; details: 100 μM; CEM cells; cited from earlier work
Compound,efficacy in preventing SARS-CoV-2 infection (SARS-CoV-2-WA1 strain),inhibition at 5000 µM (SARS-CoV-2 WA wild type),safety via the Draize test [1],reduction of corneal cystine crystals [2],tolerability in chronic use [2],"viral infection relative to the negative control (SARS-CoV-2-WA1 strain; 8 micromolar, Huh7 cells, 0.2 MOI, 48 hours, syncytia present)","infected cells / nucleocapsid staining (SARS-CoV-2-WA1 strain; 20 micromolar, Huh7 cells, 0.2 MOI, 48 hours)","elimination of SARS-CoV-2 infection (SARS-CoV-2-WA1 strain; 50 micromolar, Huh7 cells, 0.2 MOI, 48 hours)","pEC50 (SARS-CoV-2-WA1 strain; Huh7 cells, 0.2 MOI, 48 hours, read-out: EC50 (concentration at 50% effect))",cytotoxicity (Huh7 cells),effect on growth rate (epithelial fibroblasts),"viral inhibition ([3]; 200 μM, lymphocytes)","viral inhibition ([3]; 100 microM, macrophages)","antiviral effect of combination ([3]; in conjunction with zidovudine or didanosine, without concomitant increases in toxicity)",inhibition of cytotoxicity [4]
CCC(CC)COC(=O)[C@H](C)N[P@](=O)(OC[C@H]1O[C@@](C#N)(c2ccc3c(N)ncnn23)[C@H](O)[C@@H]1O)Oc1ccccc1 [Remdesivir],100%,,,,,,,,,,,,,,
NCCS [cysteamine HCl],,85 to 95%,,,,,,,,,,,,,
2-aminoethanethiol [cysteamine],~100%,,safe,effective in reducing the cystine crystals,well-tolerated,reduced viral infection relative to the negative control,small percentage of infected cells that have a diminished nucleocapsid staining,100%,~5.30,non-cytotoxic,no effect on growth rate,More than 90%,More than 90%,additive antiviral effect,100%
